“And” between values parts separate entries of the source, which are not always exact repeats. Equal entries are not always repeated. Where two headings read alike, the source gives them in different places.
Tests used:
[1] = tested on: S. aureus ATCC25923; test: Cell surface hydrophobicity, hexadecane partitioning; format: cell-based, Staphylococcus aureus; conditions: peptide 1×, 2× or 4× MIC, 10 min 37 °C, increased from 5.27% (untreated) to this value, mean, n = 3
Experimental: The effects of AMPs on the cell surface hydrophobicity of S. aureus ATCC25923 and S. enteritidis CVCC3377 were measured using the hexadecane partitioning method. Cells were grown to stationary phase in Mueller-Hinton broth at 37 °C, harvested by centrifugation at 5000 rpm for 4 min, washed twice with sterile normal saline, and suspended in 0.1 M KNO3 (pH 6.2) to an OD600 nm of 0.4. […] Sterile normal saline was used as a negative control, and the optical density at 600 nm was measured as OD0. Subsequently, a 1.2-ml cell suspension was mixed with 0.2 ml of hexadecane by vortexing for 1 min, and then, the mixture was incubated for 15 min. The OD600 nm value of the aqueous phase was determined as OD1. The hydrophobicity percentages were calculated by the following equation: hydrophobicity (%) = (1 − OD1/OD0) × 100%. All experiments were repeated three times.

[2] = tested on: S. aureus ATCC25923; format: cell-based, Staphylococcus aureus; conditions: microtiter broth dilution, 10^5 CFU/ml, 16‒18 h at 37 °C; representative of three independent experiments
Experimental: The MIC values of LfcinB17-33 derivatives against bacteria were determined by the microtiter broth dilution method. Briefly, 10 μl of serially diluted aliquots of peptides were added to each well of 96-well microtiter plates, followed by the addition of 90 μl exponential phase bacteria (10^5 CFU/ml) and incubated for 16‒18 h at 37 °C.

[3] = tested on: S. aureus ATCC25923; format: in vivo; conditions: for reduction of bacterial burden in thigh: 10 h after treatment
Experimental: The thigh infection protocol was performed as previously described. Female BALB/c mice (6 weeks old, 22 ± 2 g) were rendered neutropenic (neutrophils, 100/mm^3) by intraperitoneal injection with 150 and 100 mg cyclophosphamide per kg of body weight for 4 d and 1 d before infection, respectively. Mice were inoculated with 100 μl of S. aureus ATCC25923 cells (1.0 × 10^7 CFU/ml) and given a single dose (0.2 ml) of Lfcin4 or Lfcin5 (10 or 15 mg/kg of body weight) or vancomycin (10 mg/kg of body weight) by tail vein injection at 2 h post-infection. Mice were humanely euthanized by cervical dislocation at 5 and 10 h after treatment. Thighs were removed and homogenized in sterile PBS for a CFU assay for S. aureus ATCC25923.

FKAWRWAWRMKKLAAPS [Lfcin4, 17-residue LfcinB17-31 derivative, Trp/Ala-containing]
cell surface hydrophobicity [1]: 18.87%
MIC [2]: 3.66 μM and 8 μg/ml
reduction of bacterial burden in thigh ([3]; 10 mg/kg single i.v. dose (Fig. 6A)): 0.03 log10 CFU/g
reduction of bacterial burden in thigh ([3]; 15 mg/kg single i.v. dose (Fig. 6A)): 0.10 log10 CFU/g
S. aureus cells killed ([3]; 10 h post-treatment, 15 mg/kg single i.v. dose): 20.5%
greater reduction of viable bacteria in infected thighs compared to control mice ([3]; increasing doses from 10 to 15 mg/kg (discussion)): 0.85 log10 CFU/g of tissue
